Assay results reported in ChEMBL document CHEMBL5247651, “Oxadiazolopyridine Derivatives as Efficacious Mitochondrial Uncouplers in the Prevention of Diet-Induced Obesity” (J Med Chem, 2023).
Activity calls are given as the source filed them. No cut-off for these calls is given here.

Columns and labels:
Mus musculus [1] = assay: Anti-obesity activity in high-sugar western diet induced obesity C57BL/6j mouse model assessed as food consumption at 130 mg/kg per day, po administered for 14 days ( Rvb = 2.5 +/- 0.5 g/day per mouse); type: functional; conditions: time 14 day
[2] = Half life in C57BL/6 mouse at 10 mg/kg, po administered via gavage measured upto 24 hrs by LC/MS-MS analysis; type: ADME, organism-based; conditions: in vivo
Mus musculus [3] = assay: Anti-obesity activity in C57BL/6j mouse assessed as decrease in serum glucose level at 130 mg/kg per day, po administered via gavage daily measured after 3 weeks; type: functional, organism-based
Mus musculus [4] = assay: Anti-obesity activity in C57BL/6j mouse assessed as decrease in serum insulin level at 130 mg/kg per day, po administered via gavage daily measured after 3 weeks by ELISA assay; type: functional, organism-based
[5] = Drug distribution in fasted C57BL/6j mouse liver at 130 mg/kg, po by LC-MS/MS analysis; type: ADME, organism-based; conditions: in vivo
Mus musculus [6] = assay: Anti-obesity activity in high-sugar western diet induced obesity C57BL/6j mouse model assessed as decrease in gonadal white adipose tissue weight at 130 mg/kg per day, po administered via gavage daily measured after 3 weeks; type: functional, organism-based
[7] = Observed apparent volume of distribution in C57BL/6 mouse at 10 mg/kg, po measured upto 24 hrs by LC/MS-MS analysis; type: ADME, organism-based; conditions: in vivo
Mus musculus [8] = assay: Anti-obesity activity in high-sugar western diet induced obesity C57BL/6j mouse model assessed as decrease in serum glucose level at 130 mg/kg per day, po administered measured after 2 weeks; type: functional, organism-based
L6 = assay: Induction of mitochondrial respiration in rat L6 cells assessed as fold increase in basal respiration at 25 uM in presence of antimycin and rotenone; type: functional, cell-based
[9] = Cmax in C57BL/6 mouse at 1 mg/kg, iv measured upto 24 hrs by LC/MS-MS analysis; type: ADME, organism-based; set-up: time < 24 hrs, dose 1 mg/kg, route iv; conditions: in vivo
[10] = Half life in C57BL/6 mouse at 1 mg/kg, iv measured upto 24 hrs by LC/MS-MS analysis; type: ADME, organism-based; conditions: in vivo
Mus musculus [11] = assay: Anti-obesity activity in high-sugar western diet induced obesity C57BL/6j mouse model assessed as decrease in subcutaneous fat pad weight at 130 mg/kg per day, po administered via gavage daily measured after 3 weeks; type: functional, organism-based
[12] = mouse, in vivo, po, 10 mg/kg, 24 h

Oc1nc2nonc2cc1Nc1c(F)c(F)c(F)c(F)c1F
Activity (Mus musculus [1]): 2.5 g/day
t1/2 [2]: 1.2 h
Activity (Mus musculus [3]): Active
Activity (Mus musculus [4]): Active
Drug uptake [5]: Active
Activity (Mus musculus [6]): Active
Vz [7]: 0.74 L/kg
Activity (Mus musculus [8]): Active
Activity (L6): inactive
Cmax [9]: 16 µM
half-life [10]: 1.15 h
Activity (Mus musculus [11]): inactive
F [12]: 75%
